Results on 5 molecules are retold here after patent US20190134128A1, “METHOD FOR PRODUCING CELASTROL AND PENTACYCLIC TRITERPENE DERIVATIVES” (PIERRE FABRE DERMO-COSMETIQUE, priority 2016, published 2019).

The structures appear in SMILES notation. In brackets after ≈: the same amount, converted by molar mass.

Assay [1] has as its system Propionibacterium acnes (CIP 53117T). As to the kind of experiment: Antimicrobial activity (MIC/MBC, micro-method in liquid medium) against Propionibacterium acnes. The following applies: 24 h. Format: cell-based. The protocol: Activity is evaluated on Propionibacterium acnes (CIP 53117T), with an inoculation suspension at 10^8 CFU/mL. The maintenance medium is Columbia agar+5% sheep blood, with incubation for 24 hours at 36±1° C. under anaerobic conditions. The test medium is composed of Mueller Hinton broth+10% foetal calf serum (FCS) and Columbia agar+5% sheep blood, with incubation for 24 h at 36±1° C. under anaerobic conditions. The determination of minimum inhibitory concentrations (MICs) is performed by micro-method in liquid medium. 100 μL of liquid culture medium is deposited in each well of a sterile 96-well microplate. 100 μL of the product to be tested is deposited in the first well of a row. One-half dilutions are then made from wells 1 to 10. Propionibacterium acnes test suspensions are prepared extemporaneously in tryptone salt. 100 μL is deposited in each well of a second microplate, except column 11. All of the first microplate is inoculated, using a Denley multipoint inoculator, from the second microplate. After incubation, MICs are defined as the highest dilution with no visible growth. Columns 11 and 12 serve as negative and positive growth control, respectively. Two references were tested in parallel. The determination of minimum bactericidal concentrations (MBCs) is performed by subculturing MIC microplates on agar medium using the Denley multipoint inoculator. After incubation, MBC is defined as the highest dilution with no visible growth. All tests are performed in duplicate.

Another assay concerns S. aureus CIP 4.83. As to the kind of experiment: Antimicrobial activity (MIC/MBC) against Staphylococcus aureus. The class given is cell-based.
The next assay has as its system NFκB. Put plainly: Inhibitory activity against NFκB in HaCaT keratinocytes stimulated with TNF-alpha. Format: cell-based, human. Conditions: 2 μM, TNF-alpha 0.3 ng/mL. An excerpt: The transcription factor NFκB controls the expression of a large number of genes involved in regulation of the inflammatory response. […] Certain pro-inflammatory stimuli such as TNF-alpha and IL-1-beta lead to the activation of NFκB, i.e. its nuclear translocation. Once in the nucleus, NFκB will induce the transcription of pro-inflammatory genes encoding cytokines, chemokines, adhesion molecules, growth factors and inducible enzymes.
The anti-inflammatory activities of the extracts obtained from the suspensions contained in Erlenmeyer flasks E1, E2, E3 and E6 of example 8 were evaluated in vitro on human HaCaT keratinocytes according to the method described by Albanesi et al. The extracts, weighed in dry weight, were taken up in a buffer and introduced into a HaCaT cell culture solution in equivalent final concentrations (ng/mL) for each extract and incubated for 1 hour. NFκB expression is then induced by stimulation with TNF-alpha (0.3 ng/mL).

[2] abbreviates: Staphylococcus aureus, CIP4, 24 h.
[3] abbreviates: Propionibacterium acnes, anaerobic.
[4] abbreviates: S. aureus CIP 4.83, 36° C., 24 h.

In assay [1] (Cutibacterium acnes), `CC1=C(O)C(=O)C=C2C1=CC=C1[C@@]2(C)CC[C@@]2(C)[C@@H]3C[C@](C)(C(=O)O)CC[C@]3(C)CC[C@]12C` [Celastrol, celastrol] came in with an MBC of 1.17 µg/mL (≈ 2.6 µM) and an MIC of 0.59 µg/mL (≈ 1.31 µM). Besides, in the assay with S. aureus CIP 4.83 (setting [2]), the MBC amounted to 0.59 µg/mL (≈ 1.31 µM) and the lowest concentration to inhibit growth (MIC) was 0.29 µg/mL (≈ 0.644 µM).
Turning to `C[S+](C)[O-]` [DMSO], in assay [1] (setting [3]), the MBC turned out to be 5 µg/mL (≈ 64 µM) and the MIC amounted to 5 µg/mL (≈ 64 µM). In the assay on S. aureus CIP 4.83 (setting [4]), the MBC was above 5 µg/mL and the MIC was above 5 µg/mL.
Turning to `CC1=C(O)C(=O)C=C2C1=CC=C1[C@@]2(C)CC[C@@]2(C)[C@@H]3C[C@@H](C)C(=O)[C@@H](O)[C@]3(C)CC[C@]12C` [Tingenin B, tingenin B], in assay [1] (Cutibacterium acnes), the MBC came out at 1.17 µg/mL (≈ 2.68 µM) and inhibition of growth (MIC) required 1.17 µg/mL (≈ 2.68 µM). In the assay with S. aureus CIP 4.83 (setting [2]), this molecule had an MBC of 1.17 µg/mL (≈ 2.68 µM) and an MIC of 0.59 µg/mL (≈ 1.35 µM).
In assay [1] (Cutibacterium acnes), `CC1=C(O)C(=O)C=C2C1=CC=C1[C@@]2(C)CC[C@@]2(C)C3C[C@@H](C)C(=O)C[C@]3(C)CC[C@]12C` (stereo partly drawn) [Tingenin A, tingenin A] came in with an MBC of 2.34 µg/mL (≈ 5.56 µM) and an MIC of 2.34 µg/mL (≈ 5.56 µM). In the assay on S. aureus CIP 4.83 (setting [2]), the MBC turned out to be 2.34 µg/mL (≈ 5.56 µM) and the MIC lay in the range of 1.17 to 2.34 µg/mL (≈ 2.78 to 5.56 µM).
For the molecule `C[C@@H]1C[C@H]2[C@@H]3CCC4=CC(=O)C=C[C@]4(C)[C@@]3(F)[C@@H](O)C[C@]2(C)[C@@]1(O)C(=O)CO` [Dexamethasone], the “% inhibition of NFκB expression with respect to induction of TNF-alpha” value with NFκB is “more than 40%”; in the assay on NFκB (listed as Dex), 42.5%.

What is called MBC is the lowest tested concentration that kills the bacteria rather than only halting them. Lower therefore signals more potent killing. As a reminder, the MIC is the lowest concentration found to suppress growth.
